Patent US7557142B2, “Therapeutic use of methionine to reduce the toxicity of platinum-containing anti-tumor compounds” (Board of Trustees of Southern Illinois University, priority 1996, dated 2009)
Entries after “also recorded” stand apart in the source; their conditions may differ. Counter-ions that a name gives are not always drawn.

Legend:
[1] = system: animals; settings: literature, cited from earlier work
[2] = system: rats; settings: cited from earlier work; for CDDP nephroprotection: literature (Jones et al.; others)
[3] = literature; cited from earlier work
[4] = literature; cited from earlier work; remark: listed apart in the source
[5] = system: male Wistar rats; assay: Auditory Brainstem Testing (ABR) of auditory threshold, D-Met before CDDP; type: in vivo, rat
[6] = system: male Wistar rats; assay: Scanning electron microscopy, outer hair cell count per cochlear turn; type: in vivo, rat; settings: for outer hair cell findings, middle and basal turns: versus untreated control, 75, 150, 300 mg/kg D-Met prior to 16 mg/kg CDDP
Experimental: (§1) Complete data sets were obtained for five groups of five male Wistar rats (280-421 g). All animals were anesthetized with […] IM of Rompun cocktail (a solution containing 86.21 mg/ml ketamine and 2.76 mg/ml xylazine) prior to all injections and testing. Anesthesia was supplemented as needed with half doses throughout testing.
(§2) ABR data were analyzed using a three factor analysis of variance (ANOVA) with one between subject factor (groups) and two within subject factors (frequency and pre- vs. post-test). Each dependent variable was analyzed independently. Tests subsequent to the ANOVA were carried out in accordance with the Tukey HSD procedure. Weight loss and/or gastrointestinal protection was measured using the same type of statistical analysis as the ABR measures. SEM data were analyzed for each turn using a one way analysis of variance with Post-Hoc Tukey HSD analysis. The criterion for statistical significance for all measures was p≦0.01.

[7] = system: male Wistar rats
Experimental: as §1
Each animal's weight was measured in an Ohaus triple beam balance scale before administration of the anesthetic for the pretest and again before the post-test 3 days later.
as §2

[8] = system: male Wistar rats; remark: listed apart in the source
Experimental: as §1

[9] = system: hamsters; settings: Church et al. (1995); cited from earlier work
[10] = system: patients; settings: cited from earlier work
[11] = system: Walker 256 carcinosarcoma; settings: rat, in vivo; cited from earlier work
[12] = system: patients; settings: human, in vivo; cited from earlier work
[13] = parenteral administration in humans; Printen et al., 1979; cited from earlier work
[14] = system: NHIK 3025 in vitro human uterine cervix carcinoma in situ cancer cells; settings: methionine, presumably a racemic mixture; Melvik and Petterson, 1987; cited from earlier work
[15] = 16 mg/kg CDDP alone (treated control)

CCN(CC)C(=S)S [DDTC, diethyldithiocarbamate]
side effects of the protective agent [1]: can produce severe side effects

Nc1ccc(S(=O)(=O)Nc2nccs2)cc1 [Sulfathiazole]
CDDP nephroprotection [2]: provides protection against CDDP nephrotoxicity

C[C@H](CS)C(=O)N1CCC[C@H]1C(=O)O [Captropril]
CDDP nephroprotection [2]: protects against CDDP nephrotoxicity

Cc1ncc(C[n+]2csc(CCO)c2C)c(N)n1 [thiamine-HCl]
CDDP nephroprotection [2]: does not protect against cisplatin nephrotoxicity or weight loss
protection against CDDP-induced weight loss [3]: does not protect against cisplatin nephrotoxicity or weight loss

CO[C@@]1(NC(=O)Cc2cccs2)C(=O)N2C(C(=O)O)=C(COC(N)=O)CS[C@@H]21 [cefoxitin]
CDDP nephroprotection [2]: does not provide nephroprotection
protection against CDDP-induced weight loss [3]: some protection against CDDP-induced weight loss

CCOC(=O)[C@@H](N)CS [Ethyl-L-cysteinate]
CDDP nephroprotection [2]: exacerbate CDDP nephrotoxicity

O=C(O)CCCC[C@@H]1SC[C@@H]2NC(=O)N[C@@H]21 [Biotin]
CDDP nephroprotection [2]: good CDDP nephroprotection
effect on CDDP anti-tumor action [4]: inhibits anti-tumor activity

O=S([O-])([O-])=S.[Na+].[Na+] [STS, sodium thiosulfate]
CDDP nephroprotection [2]: reduces CDDP nephrotoxicity
effect on CDDP anti-tumor action [4]: may reduce CDDP tumoricidal action; also recorded: reduces the latter's tumoricidal action
CDDP otoprotection ([1]; animals): good CDDP otoprotection
protection against CDDP-induced weight loss [3]: may exacerbate CDDP-induced weight loss and mortality

CC(S)C(=O)NCC(=O)O (stereo not shown) [N-(2-mercapto-propionyl)glycine]
CDDP nephroprotection [2]: exacerbate CDDP nephrotoxicity

CSCC[C@@H](N)C(=O)O [D-Met, D-methionine]
animals with complete otoprotection as defined by no significant ABR threshold shift for any stimulus ([5]; 75 mg/kg D-Met i.p. 30 minutes prior to 16 mg/kg CDDP, ABR 3 days later): 2/5
animals with complete otoprotection as defined by no significant ABR threshold shift for any stimulus ([5]; 150 mg/kg D-Met i.p. 30 minutes prior to 16 mg/kg CDDP, ABR 3 days later): 3/5
animals with complete otoprotection for all stimulus conditions ([5]; 300 mg/kg D-Met i.p. 30 minutes prior to 16 mg/kg CDDP, ABR 3 days later): 5 animals
ABR thresholds compared with treated control group, all stimuli ([5]; any level of D-Met (75, 150, 300 mg/kg) prior to 16 mg/kg CDDP, p≦0.01): significantly lower ABR thresholds than the treated control group
hair cell counts, apical turn ([6]; all groups, apical turn): essentially normal hair cell counts
outer hair cell findings, middle and basal turns [6]: only the treated control group showed significantly different findings
weight loss compared with treated control group ([7]; 300 mg/kg D-Met prior to 16 mg/kg CDDP, 3 days): significantly less than that in the treated control group
CDDP-induced weight loss versus D-Met dose ([7]; 75, 150, 300 mg/kg D-Met prior to 16 mg/kg CDDP): diminished as D-Met dosing increased
alopecia: coat and hair loss versus control group animals ([8]; D-Met prior to 16 mg/kg CDDP): significantly less hair loss
neuroprotection: activity and coordination versus surviving treated controls ([8]; morning of the third day, D-Met prior to 16 mg/kg CDDP): noticeably more lively, active, and coordinated
CDDP nephroprotection [2]: highly effective CDDP nephroprotection

NCCCNCCSP(=O)(O)O [WR2721]
protection from CDDP ototoxicity or mortality [9]: no WR2721 protection from ototoxicity or mortality
effect on nausea and vomiting ([10]; Glover et al., 1987): does not ameliorate nausea and vomiting
CDDP nephroprotection ([10]; Mollman et al., 1988): excellent CDDP nephroprotection
patients with mild to severe hearing loss ([10]; WR2721 prior to CDDP, Glover et al. (1987)): 20 of 36
incidence of significant hearing threshold shift ([10]; patients pretreated with WR2721 prior to CDDP, Rubin et al. (1995)): 45%

CC1(C)S[C@@H]2[C@H](NC(=O)Cc3ccccc3)C(=O)N2[C@H]1C(=O)[O-].[Na+] [sodium salt of penicillin G, penicillin G]
CDDP nephroprotection [2]: does not protect against CDDP nephrotoxicity or weight loss
protection against CDDP-induced weight loss [3]: does not protect against CDDP nephrotoxicity or weight loss

CSCC[C@H](N)C(N)=O [L-methioninamide]
CDDP nephroprotection [2]: excellent CDDP nephroprotection
effect on CDDP anti-tumor action [4]: impairs CDDP anti-tumor action

N.N.[Cl][Pt][Cl] [CDDP, cis-diamminedichloroplatinum(II)]
outer hair cell findings, middle and basal turns [6]: significantly different findings from the untreated control group
animals surviving to the end of the study period [8, 15]: 5/10
animals that did not survive to the end of the study period [8, 15]: 50%
time to complete redistribution after tumor uptake [11]: ≤ 15 min
patients with hearing loss having complete recovery [12]: one of 121

CSCCC(N)C(=O)O (racemic) [DL-methionine]
plasma levels of isomers [13]: higher plasma levels of the D- isomer

CSCC[C@H](N)C(=O)O (racemic) [methionine]
effect of preadministration on CDDP cytotoxicity [14]: sensitized NHIK 3025 in vitro human uterine cervix carcinoma in situ cancer cells to CDDP cytotoxicity

CC1=C(C(=O)O)N2C(=O)[C@@H](NC(=O)[C@H](N)c3ccccc3)[C@H]2SC1 [Cephalexin]
prevention of CDDP kidney pathology ([2]; Jones et al., 1992): does not prevent kidney pathology
CDDP nephroprotection [2]: protects against CDDP-induced kidney dysfunction and weight loss
protection against CDDP-induced weight loss [3]: protects against CDDP-induced kidney dysfunction and weight loss

CSc1ncccc1C(=O)O [2-(methylthio)nicotinic acid]
CDDP nephroprotection [2]: does not provide nephroprotection in rats
